Here are results for three compounds from article PMC4266362 (Journal of Medicinal Chemistry, 2014).

In one data set the test system is rats. Put plainly: spontaneous locomotor activity. It is filed as in vivo. As to conditions: rat, 10–30 mg/kg i.p.
A further data set concerns the target human GLP-1R (Homo sapiens, UniProt P43220). Nature of the data set: calcium mobilization PAM assay in human GLP-1R 9-3-H cells. It is filed as cell-based. (A change in cytosolic calcium serves as a functional read-out for many receptors and channels.)
Another data set deals with primary mouse islets. Nature of the data set: glucose-stimulated insulin secretion, static islet incubation. In kind it is cell-based.
The nature of data set [1]: in vivo rat pharmacokinetics. As to conditions: male, Sprague-Dawley, plasma.
Data set [2] is described as follows: in vivo rat brain distribution. As to conditions: Sprague-Dawley, intraperitoneal, 10 mg/kg.
Data set [3] relates to 68 GPCRs, ion channels, and transporters. Put plainly: Eurofin radioligand binding panel. As to conditions: 10 μM, 68 targets.
Data set [4] is described as follows: liver microsome predicted hepatic clearance, rat. In kind it is in vitro ADME. As to conditions: well-stirred model.
For a further data set, the target named is glucagon receptor (GR) (Homo sapiens, UniProt P47871). Put plainly: duplexed calcium mobilization assay, glucagon receptor. In kind it is cell-based. As to conditions: EC20 of glucagon.
glucagon receptor (GR), sequence (P47871 26-477, species assumed): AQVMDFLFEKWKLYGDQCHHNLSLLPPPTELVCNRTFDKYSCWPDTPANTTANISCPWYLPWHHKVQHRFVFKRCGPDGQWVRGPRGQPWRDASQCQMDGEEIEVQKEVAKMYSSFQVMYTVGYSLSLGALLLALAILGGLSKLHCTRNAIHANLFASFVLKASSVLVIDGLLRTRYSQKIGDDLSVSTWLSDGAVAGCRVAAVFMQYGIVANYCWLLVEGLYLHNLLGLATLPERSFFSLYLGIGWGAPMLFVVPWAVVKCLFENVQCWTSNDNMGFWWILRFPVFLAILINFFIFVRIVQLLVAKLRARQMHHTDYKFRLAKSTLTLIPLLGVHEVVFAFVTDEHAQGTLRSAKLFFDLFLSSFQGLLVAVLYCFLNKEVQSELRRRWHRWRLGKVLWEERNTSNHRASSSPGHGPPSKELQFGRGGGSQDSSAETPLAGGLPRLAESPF
Data set [5] addresses melanocortin 4 receptor (MC4R) (Homo sapiens, UniProt P32245). Put plainly: counter-screen against melanocortin 4 receptor. It is filed as cell-based.

Bounds are passed on as bounds.

human GLP-1R, sequence (P43220 24-463): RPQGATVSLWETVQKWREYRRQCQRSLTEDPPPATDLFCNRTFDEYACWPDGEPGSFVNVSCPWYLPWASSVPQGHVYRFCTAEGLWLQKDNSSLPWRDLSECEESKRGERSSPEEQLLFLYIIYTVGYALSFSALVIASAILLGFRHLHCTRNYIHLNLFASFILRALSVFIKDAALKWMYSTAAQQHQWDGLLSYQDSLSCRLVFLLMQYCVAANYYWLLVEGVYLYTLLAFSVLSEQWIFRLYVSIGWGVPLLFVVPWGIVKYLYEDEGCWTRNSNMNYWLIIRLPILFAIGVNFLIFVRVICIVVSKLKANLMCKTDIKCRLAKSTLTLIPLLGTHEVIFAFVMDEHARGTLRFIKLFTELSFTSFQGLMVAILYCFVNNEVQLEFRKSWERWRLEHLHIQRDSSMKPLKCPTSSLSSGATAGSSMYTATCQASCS
melanocortin 4 receptor (MC4R), sequence (P32245 whole entry, species assumed): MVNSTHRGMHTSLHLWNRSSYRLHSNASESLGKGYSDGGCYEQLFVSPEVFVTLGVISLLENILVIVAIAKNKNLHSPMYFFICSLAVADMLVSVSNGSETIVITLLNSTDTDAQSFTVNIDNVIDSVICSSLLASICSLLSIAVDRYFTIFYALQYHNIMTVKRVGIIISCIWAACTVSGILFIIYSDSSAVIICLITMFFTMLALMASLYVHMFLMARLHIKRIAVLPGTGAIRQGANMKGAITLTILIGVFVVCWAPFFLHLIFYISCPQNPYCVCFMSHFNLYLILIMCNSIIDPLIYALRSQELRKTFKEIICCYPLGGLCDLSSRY

By half-life is commonly meant how long it takes for the measured level to halve. Broadly, the Tmax is the time from dosing to the highest level. On to `CC(C)N1CCC[C@H]1CNC(=O)c1cn(C2CCCC2)c(=O)c2c1c1ccccc1n2C` [(S)-9b, (S)-2-Cyclopentyl-N-((1-isopropylpyrrolidin-2-yl)methyl)-9-methyl-1-oxo-2,9-dihydro-1H-pyrido[3,4-b]indole-4-carboxamide], for which the “effect on spontaneous locomotor activity” value in the data set with rats was “no effect on locomotion or sedative effects”. Further, the “GLP-1R PAM activity / mode (pure PAM or ago-PAM)” value on human GLP-1R (calcium mobilization) was “ago-PAMs”. Also, in the data set with primary mouse islets (30 μM, in presence of 10 nM 1, low (5.6 mM) and high (11 mM) glucose, 60 min), the “effect on insulin secretion” value is recorded as “significantly increased insulin secretion”. This compound also gave a half-life in [1] (intravenous, 1 mg/kg) of about 60 min. In [2], the Tmax is 30 min. Besides, the “highest inhibition in radioligand binding panel” value in data set [3] was at most 50%.
The term clearance denotes a measure of how efficiently the substance is removed, as volume per time. Turning to `CCN1CCC[C@H]1CNC(=O)c1cn(C2CCCC2)c(=O)c2c1c1ccccc1n2C` [(S)-8], the “calcium response in the absence of GLP-1” value at human GLP-1R (compound alone) is “no calcium response”. Further, the “potentiation of glucose-stimulated insulin secretion” value in the data set on primary mouse islets (primary mouse islets, in the presence of 2) is reported as about 1.5 fold. The compound further registered a clearance in data set [1] of 92 mL/min/kg. The “rat CLHEP” value in data set [4] was 69 mL/min/kg. On glucagon receptor (GR), the “activity at GR” value was “no effect”.
For `CCN1CCCC1CNC(=O)c1cn(C2CCCC2)c(=O)c2c1c1ccccc1n2C` (stereo not shown) [compound 8], the “activity at MC4R” value in data set [5] is “inactive”. The “activity at GR” value on glucagon receptor (GR) was “inactive”.
